# Assay results taken from ChEMBL document CHEMBL3784958, “Disposition of sodium valproate in epileptic patients” (Br J Clin Pharmacol, 1978).
# Tests used:
# [1] = AUC (0 to 48 hrs) in epileptic patient (6 patients) at 800 mg, po administered as single dose by gas liquid chromatographic method; format: ADME, organism-based; parameters: dose 800 mg, time < 48 hr, route oral; details: human, in vivo
# [2] = Apparent volume of distribution in epileptic patient (6 patients) at 800 mg, iv administered as single dose by gas liquid chromatographic method; format: ADME, organism-based; details: human, in vivo, read-out: Vd(app)
# [3] = Apparent volume of distribution in healthy volunteer (6 volunteers) at 800 mg, iv administered as single dose by gas liquid chromatographic method; format: ADME, organism-based; details: human, in vivo, read-out: Vd(app)
# [4] = Total clearance in healthy volunteer (6 volunteers) at 800 mg, iv administered as single dose by gas liquid chromatographic method; format: ADME, organism-based; details: human, in vivo
# [5] = Elimination rate constant in epileptic patient (6 patients) at 800 mg, iv administered as single dose by gas liquid chromatographic method; format: ADME, organism-based; details: human, in vivo
# [6] = Initial plasma concentration in epileptic patient (6 patients) at 800 mg, iv administered as single dose by gas liquid chromatographic method; format: ADME, organism-based; details: human
# [7] = Cmax in epileptic patient (6 patients) at 800 mg, po administered as single dose by gas liquid chromatographic method; format: ADME, organism-based; parameters: dose 800 mg, route oral; details: human, in vivo
# [8] = Elimination rate constant in epileptic patient (6 patients) at 800 mg, po administered as single dose by gas liquid chromatographic method; format: ADME, organism-based; details: human, in vivo
# [9] = AUC (0 to infinity) in epileptic patient (6 patients) at 800 mg, iv administered as single dose by gas liquid chromatographic method; format: ADME, organism-based; parameters: dose 800 mg, route intravenous, time infinity; details: human, in vivo
# [10] = tested on: Homo sapiens; experiment: Extrapolated volume of distribution in epileptic patient (6 patients) at 800 mg, po administered as single dose by gas liquid chromatographic method; format: ADME, organism-based; details: in vivo
# [11] = tested on: Homo sapiens; experiment: Toxicity in epileptic patient (6 patients) at 800 mg, po and iv administered as single dose by gas liquid chromatographic method; format: organism-based; details: in vivo
# [12] = Tmax in healthy volunteer (6 volunteers) at 800 mg, po administered as single dose by gas liquid chromatographic method; format: ADME, organism-based; details: human, in vivo
# [13] = AUC (0 to 48 hrs) in epileptic patient (6 patients) at 800 mg, iv administered as single dose by gas liquid chromatographic method; format: ADME, organism-based; parameters: dose 800 mg, time < 48 hr, route intravenous; details: human, in vivo
# [14] = Tmax in epileptic patient (6 patients) at 800 mg, po administered as single dose by gas liquid chromatographic method; format: ADME, organism-based; details: human, in vivo
# [15] = Oral bioavailability in epileptic patient (6 patients) at 800 mg administered as single dose by gas liquid chromatographic method; format: ADME, organism-based; details: human, in vivo
# [16] = tested on: Homo sapiens; experiment: Volume of distribution (area) in epileptic patient (6 patients) at 800 mg, po administered as single dose by gas liquid chromatographic method; format: ADME, organism-based; details: in vivo
# [17] = Volume of distribution (area) in epileptic patient (6 patients) at 800 mg, iv administered as single dose by gas liquid chromatographic method; format: ADME, organism-based; details: human, in vivo
# [18] = Half life in epileptic patient (6 patients) at 800 mg, po administered as single dose by gas liquid chromatographic method; format: ADME, organism-based; details: human, in vivo
# [19] = Volume of distribution (area) in healthy volunteer (6 volunteers) at 800 mg, iv administered as single dose by gas liquid chromatographic method; format: ADME, organism-based; details: human, in vivo
# [20] = Half life in epileptic patient (6 patients) at 800 mg, iv administered as single dose by gas liquid chromatographic method; format: ADME, organism-based; details: human, in vivo
# [21] = AUC (0 to infinity) in epileptic patient (6 patients) at 800 mg, po administered as single dose by gas liquid chromatographic method; format: ADME, organism-based; parameters: dose 800 mg, route oral, time infinity; details: human, in vivo
# [22] = Extrapolated volume of distribution in epileptic patient (6 patients) at 800 mg, iv administered as single dose by gas liquid chromatographic method; format: ADME, organism-based; details: human, in vivo
# [23] = Total clearance in epileptic patient (6 patients) at 800 mg, iv administered as single dose by gas liquid chromatographic method; format: ADME, organism-based; details: human, in vivo
# [24] = Elimination rate constant in healthy volunteer (6 volunteers) at 800 mg, iv administered as single dose by gas liquid chromatographic method; format: ADME, organism-based; details: human, in vivo
# [25] = Half life in healthy volunteer (6 volunteers) at 800 mg, iv administered as single dose by gas liquid chromatographic method; format: ADME, organism-based; details: human, in vivo
smiles,measurement,setting,value
CCCC(CCC)C(=O)[O-].[Na+] [VALPROATE SODIUM],AUC(0-t) at 48 h,[1],749 µg·h/mL
same,Vd,[2],0.175 L/kg
same,Vd,[3],0.147 L/kg
same,clearance,[4],9 mL/min
same,k el,[5],2.21e-05 s⁻¹
same,C0,[6],58.5 µg/mL
same,Cmax,[7],71.8 µg/mL
same,k el,[8],2.17e-05 s⁻¹
same,AUC(0-inf),[9],807 µg·h/mL
same,Vd,[10],13.1 L
same,Activity,[11],Non-toxic
same,Tmax,[12],1.8 h
same,AUC(0-t) at 48 h,[13],785 µg·h/mL
same,Tmax,[14],1.2 h
same,bioavailability,[15],96%
same,Vd,[16],12.9 L
same,Vd,[17],12.8 L
same,half-life,[18],9 h
same,Vd,[19],10 L
same,half-life,[20],9 h
same,AUC(0-inf),[21],771 µg·h/mL
same,Vd,[22],13.8 L
same,clearance,[23],16.7 mL/min
same,k el,[24],1.52e-05 s⁻¹
same,half-life,[25],12.8 h
